Patent publication US12077503B2, “Substituted cyclic amides and their use as herbicides” (FMC CORPORATION, priority 2015, dated 2024)

Columns and labels:
Assay type in all cases: in vivo
[1] = tested on: barnyardgrass (Echinochloa crus-galli); assay: Test B flooded paddy test; conditions: Echinochloa crus-galli, 250 g ai/ha, Flood; 0 to 100 scale where 0 is no effect and 100 is complete control; read-out: Barnyardgrass plant response rating
In short: (§1)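 Plants at 2-leaf stage flooded to 3 cm above soil, with compounds applied directly to paddy water and that depth maintained. Plants kept in greenhouse 13–15 d. Visual rating versus controls on a 0 (no effect) to 100 (complete control) scale.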

[2] = tested on: sedge, umbrella (small-flower umbrella sedge, Cyperus difformis); assay: Test B flooded paddy test; conditions: Cyperus difformis, 250 g ai/ha, Flood; 0 to 100 scale where 0 is no effect and 100 is complete control; read-out: Sedge, Umbrella plant response rating
In short: as §1

[3] = tested on: ducksalad (Heteranthera limosa); assay: Test B flooded paddy test; conditions: Heteranthera limosa, 250 g ai/ha, Flood; 0 to 100 scale where 0 is no effect and 100 is complete control; read-out: Ducksalad plant response rating
In short: as §1

rice (Oryra sativa) = assay: Test B flooded paddy test; conditions: Oryza sativa, 250 g ai/ha, Flood; 0 to 100 scale where 0 is no effect and 100 is complete control; read-out: Rice plant response rating
In short: as §1

[4] = tested on: Galium (catchweed bedstraw, Galium aparine); assay: Test A postemergence; conditions: Galium, post-emergence, 240 h, read-out: Galium plant response rating (0 to 100 scale)
In short: (§2)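 Compounds were formulated in a non-phytotoxic solvent mixture with surfactant and applied as a preemergence directed soil spray after seeding, or sprayed postemergence over plants 2 to 10 cm tall at the one- to two-leaf stage. Evaluation after about 10 d compared treated with untreated controls, using a scale from 0 (no effect) to 100 (complete control).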

[5] = tested on: pigweed (Amaranthus retroflexus); assay: Test A postemergence; conditions: Amaranthus retroflexus, post-emergence, 240 h, read-out: Pigweed plant response rating (0 to 100 scale)
In short: as §2

[6] = tested on: blackgrass (Alopecurus myosuroides); assay: Test A postemergence; conditions: Alopecurus myosuroides, post-emergence, 240 h, read-out: Blackgrass plant response rating (0 to 100 scale)
In short: as §2

[7] = tested on: barnyardgrass (Echinochloa crus-galli); assay: Test A postemergence; conditions: Echinochloa crus-galli, post-emergence, 240 h, read-out: Barnyardgrass plant response rating (0 to 100 scale)
In short: as §2

[8] = tested on: wheat (Triticum aestivum); assay: Test A postemergence; conditions: Triticum aestivum, post-emergence, 240 h, Postemergence, 31 g ai/ha; 0 is no effect, 100 is complete control; read-out: Wheat plant response rating (0 to 100 scale)
In short: as §2

corn (Zea mays) = assay: Test A postemergence; conditions: Zea mays, post-emergence, 240 h, read-out: Corn plant response rating (0 to 100 scale)
In short: as §2

Kochia (Kochia scoparia) [9] = assay: Test A postemergence; conditions: Bassia scoparia, post-emergence, 240 h, read-out: Kochia plant response rating (0 to 100 scale)
In short: as §2

[10] = tested on: ryegrass, Italian (Italian ryegrass, Lolium multiflorum); assay: Test A postemergence; conditions: Lolium multiflorum, post-emergence, 240 h, read-out: Ryegrass, Italian plant response rating (0 to 100 scale)
In short: as §2

[11] = tested on: ragweed (common ragweed, Ambrosia elatior); assay: Test A postemergence; conditions: Ambrosia artemisiifolia, post-emergence, 240 h, read-out: Ragweed plant response rating (0 to 100 scale)
In short: as §2

[12] = tested on: giant foxtail (Setaria faberii); assay: Test A postemergence; conditions: Setaria faberi, post-emergence, 240 h, read-out: Foxtail, Giant plant response rating (0 to 100 scale)
In short: as §2

[13] = tested on: pigweed (Amaranthus retroflexus); assay: Test A preemergence; conditions: Amaranthus retroflexus, pre-emergence, 240 h, 0 to 100 scale where 0 is no effect and 100 is complete control, read-out: Pigweed plant response rating
[14] = tested on: barnyardgrass (Echinochloa crus-galli); assay: Test A preemergence; conditions: Echinochloa crus-galli, pre-emergence, 240 h, 0 to 100 scale where 0 is no effect and 100 is complete control, read-out: Barnyardgrass plant response rating
In short: as §2

Kochia (Kochia scoparia) [15] = assay: Test A preemergence; conditions: Bassia scoparia, pre-emergence, 240 h, 0 to 100 scale where 0 is no effect and 100 is complete control, read-out: Kochia plant response rating
In short: as §2

[16] = tested on: ryegrass, Italian (Italian ryegrass, Lolium multiflorum); assay: Test A preemergence; conditions: Lolium multiflorum, pre-emergence, 240 h, 0 to 100 scale where 0 is no effect and 100 is complete control, read-out: Ryegrass, Italian plant response rating
In short: as §2

[17] = tested on: ragweed (common ragweed, Ambrosia elatior); assay: Test A preemergence; conditions: Ambrosia artemisiifolia, pre-emergence, 240 h, 0 to 100 scale where 0 is no effect and 100 is complete control, read-out: Ragweed plant response rating
In short: as §2

[18] = tested on: giant foxtail (Setaria faberii); assay: Test A preemergence; conditions: Setaria faberi, pre-emergence, 240 h, 0 to 100 scale where 0 is no effect and 100 is complete control, read-out: Foxtail, Giant plant response rating
In short: as §2

[19] = 125 g ai/ha, postemergence, visual injury vs untreated controls after approx. 10 d, 0 = no effect, 100 = complete control
[20] = Postemergence, 31 g ai/ha, 0 is no effect, 100 is complete control
[21] = 125 g ai/ha, preemergence, visual injury rating, approximately 10 d

O=C1NC[C@H](c2ccc(F)c(Oc3ccccc3)c2)[C@H]1C(=O)Nc1cccc(F)c1F [Compound 1258]
pest or weed control at 250 g/ha [1]: 40%
pest or weed control at 250 g/ha [2]: 0%
pest or weed control at 250 g/ha [3]: 0%
pest or weed control at 250 g/ha (rice (Oryra sativa)): 0%
pest or weed control at 125 g/ha [4, 19]: 80%
pest or weed control at 31 g/ha [4, 20]: 70%
pest or weed control at 125 g/ha [5, 19]: 30%
pest or weed control at 31 g/ha [5, 20]: 0%
pest or weed control at 125 g/ha [6, 19]: 0%
pest or weed control at 31 g/ha [6, 20]: 0%
pest or weed control at 125 g/ha [7, 19]: 70%
pest or weed control at 31 g/ha [7, 20]: 30%
plant injury at 31 g/ha [8]: 0%
plant injury at 125 g/ha (corn (Zea mays); [19]): 40%
plant injury at 31 g/ha (corn (Zea mays); [20]): 0%
pest or weed control at 125 g/ha (Kochia (Kochia scoparia) [9]; [19]): 0%
pest or weed control at 31 g/ha (Kochia (Kochia scoparia) [9]; [20]): 0%
pest or weed control at 125 g/ha [10, 19]: 0%
pest or weed control at 31 g/ha [10, 20]: 0%
pest or weed control at 125 g/ha [11, 19]: 0%
pest or weed control at 31 g/ha [11, 20]: 0%
pest or weed control at 125 g/ha [12, 19]: 60%
pest or weed control at 31 g/ha [12, 20]: 30%
pest or weed control at 31 g/ha ([13]; 31 g ai/ha, Preemergence): 0%
pest or weed control at 125 g/ha [13, 21]: 0%
pest or weed control at 31 g/ha ([14]; 31 g ai/ha, Preemergence): 0%
pest or weed control at 125 g/ha [14, 21]: 30%
pest or weed control at 31 g/ha (Kochia (Kochia scoparia) [15]; 31 g ai/ha, Preemergence): 0%
pest or weed control at 125 g/ha (Kochia (Kochia scoparia) [15]; [21]): 0%
pest or weed control at 31 g/ha ([16]; 31 g ai/ha, Preemergence): 0%
pest or weed control at 125 g/ha [16, 21]: 0%
pest or weed control at 31 g/ha ([17]; 31 g ai/ha, Preemergence): 0%
pest or weed control at 125 g/ha [17, 21]: 0%
pest or weed control at 31 g/ha ([18]; 31 g ai/ha, Preemergence): 40%
pest or weed control at 125 g/ha [18, 21]: 70%
